Earlier results on 1 molecule are cited in patent US20100029602A1, “LOW-DOSE MOMETASONE FORMULATIONS” (Perrigo Israel Pharmaceuticals Ltd., priority 2007, published 2010).

SMILES strings stand for the structures.

As for `C[C@@H]1C[C@H]2[C@@H]3CCC4=CC(=O)C=C[C@]4(C)[C@@]3(Cl)[C@@H](O)C[C@]2(C)[C@@]1(OC(=O)c1ccco1)C(=O)CCl` [Mometasone furoate], the “solubility in ethyl alcohol” value (ethyl alcohol) is listed as “moderately soluble”. In addition, the solubility in octanol entry (octanol) was “slightly soluble”. Besides, the solubility in water entry (water) is “practically insoluble”.
